Source: patent US20080194678A1, “Process To Obtain Synthetic And Semi-Synthetic Lignan Derivatives, Their Antiparasitic Activities And Corresponding Pharmaceutical Formulations, Including The Therapeutic Method Using Said Lignan For The Treatment Of Parasitosis” (Fundacao de Amparo a Pesquissa do Estado de Aao Pa, priority 2005, published 2008)
“Also recorded” adds a separate entry of the source. Read-outs that look alike come from different tables or passages of the source.

Key:
S. mansoni [1] = experiment: Couples of S. mansoni recovered from infected BALB/c mice by perfusion after treatment; type: in vivo, Schistosoma mansoni; details: for number of S. mansoni recovered / couples of S. mansoni recovered in the treated group / efficacy: BALB/c mice; for number of S. mansoni recovered / efficacy: single dose 10 mg/kg after 40 days of infection; for couples of S. mansoni recovered in the treated group: single dose 10 mg/kg after 40 days of infection (approx. 200 cercariae), untreated group 40 couples/animal; for reduction of the viable worms: 10 mg/kg of weight, after 40 days of infection with S. mansoni
Procedure: FIG. 8—graph with the number of recovered worms vs. effect of the drug. Couples of S. mansoni recovered from BALB/c mice by perfusion of the door-kidney system. Five mice, after 40 days of infection (approximately 200 cercariae), were submitted to test with a single dose of the drug dinitrocubebine (10 mg/kg of weight). In the group untreated (negative control treated only with a 5% dimethyl sulfoxide solution in water), 40 couples/animal were recovered. In the treated group, only 5 couples were recovered. […] FIG. 9—graph with the number of recovered worms vs. effect of the drug. Couples of S. mansoni recovered from BALB/c mice by perfusion of the door-kidney system. Five mice, after 40 days of infection (approximately 200 cercariae), were submitted to test with a single dose of the drug methylcubebin (10 mg/kg of weight). In the untreated group (negative control treated only with a 5% dimethyl sulfoxide solution in water), 40 couples/animal were recovered. In the treated group, only five couples were recovered. […] In in vivo tests, the drugs (−)—O-methylcubebin (6) and (−)-6,6′-dinitronokinin (8) presented results similar to the obtained with praziquantel, in the same concentration (10 mg/kg of weight), i.e. reduction of approximately 90% of the viable worms, after 40 days of infection with S. mansoni. […] Such a result was extremely important and promising, since the drug was given to the parasites when they were still maturing and had not yet reached the evolutive form of adult worms. […] Thus, the developed medicine may be used not only as a healing drug, but also as a prophylactic drug in the combat against schistosomosis. Another advantage relates to the low toxicity of these substances for use in antiparasitic therapeutics, since many of these derivatives have hepatic-protecting and antioxidant action. Thus, the use of these lignans certainly offers higher safety for therapeutic use than praziquantel. So, the use of these substances in medicines for longer treatments is safer than with praziquantel and they have nearly no significant side effects. Finally, this group of substances is obtained from natural sources, which is not applicable to praziquantel.

Schistosoma [2] = experiment: Schistosomicidal activity (test not specified)
[3] = tested on: Schistosoma mansoni (evolutive stage of adult worm); experiment: In vitro culture of Schistosoma mansoni adult worm couples (motility, separation, egglaying, tegument, death); type: cell-based; details: for time to considerable increase in the motility of parasite couples / time to separation of parasite couples: 14.0 and 7.0 μg/ml; for change in tegument or death of parasites: worms analyzed for 5 days
Procedure: FIG. 1—effect of the drugs (−)-hinokinin (3) and (−)-O—(N,N-dimethylamino-ethyl) cubebin (4), in concentrations of 14, 7.5 and 3.5 μg/ml, under the parasite Schistosoma mansoni's egglaying during 5 days of culture.
FIG. 2—effect of the drug (−)-6,6-dinitroinokinin (8), in concentrations of 14, 7.5 and 3.5 μg/ml, under the parasite Schistosoma mansoni's egglaying during 5 days of culture.
FIG. 3—effect of the drug (−)—O-methylcubebin (5), in concentrations of 14, 7.5 and 3.5 μg/ml, under the parasite Schistosoma mansoni's egglaying during 5 days of culture
FIG. 4—parasite Schistosoma mansoni (evolutive stage of adult worm) cultivated in vitro in RPMI 1640 medium, in 5% CO2 atmosphere at 37° C. for 24 hours, in the absence and presence of the drug (−)-6,6-dinitroinokinin (8). A and C, male and female parasites, respectively, cultivated in the absence of substances. B and D, male and female parasite, respectively, cultivated in the presence of the Drug (the same effect was noticed in concentrations of 14.0, 7.0 and 3.0 μg/ml) Inverted light microscope, 4× magnification.
Two hours after the addition of substances 3 and 5 in concentrations of 14.0 and 7.0 μg/ml, considerable increase in the motility of parasite couples was noticed, ending up with their separation after 18 hours.

[4] = tested on: Schistosoma mansoni (evolutive stage of adult worm); experiment: as above; type: cell-based; details: 14.0, 7.0 and 3.5 μg/ml
S. mansoni [5] = experiment: Couples of S. mansoni recovered from infected BALB/c mice by perfusion after treatment; type: in vivo, Schistosoma mansoni; details: after 7 and 21 days of infection
S. mansoni [6] = details: vertebrate host; cited from earlier work
Schistosoma [7] = details: cited from earlier work; for side effects: patients
[8] = 3.5 μg/ml, after 24 hours of culture

## O=[N+]([O-])c1cc2c(cc1CC1COC(O)C1Cc1cc3c(cc1[N+](=O)[O-])OCO3)OCO2 (single isomer, unassigned; (-)) [8a, (−)-6,6′-dinitrocubebin]
S. mansoni [1]
  number of S. mansoni recovered: about 10%
  couples of S. mansoni recovered in the treated group: 5 couples
Schistosoma [2]
  schistosomicidal activity: significant schistosomicidal activity

## COc1cc(OC)c([C@H]2[C@H](C)[C@@H](c3cc(OC)c(OC)cc3OC)O[C@H]2C)cc1OC [compound 17, magnosalicin]
Schistosoma [2]
  schistosomicidal activity: significant schistosomicidal activity

## COC1OC[C@@H](Cc2ccc3c(c2)OCO3)[C@@H]1Cc1ccc2c(c1)OCO2 (single isomer, unassigned; (-)) [compound 6, (−)-O-methylcubebin]
[3]; 14, 7.5 and 3.5 μg/ml
  increase in motility of couples: increased the motility of couples after the first hour of culture
  time to separation of the parasites: ≤ 12 h
S. mansoni [1]
  reduction of the viable worms: approximately 90%
  efficacy: around 93%
  number of S. mansoni recovered: about 10%
  couples of S. mansoni recovered in the treated group: five
Schistosoma [2]
  schistosomicidal activity: significant schistosomicidal activity
[4]
  tegument (cutaneous) lesions in male and female parasites: did not produce cutaneous lesions
S. mansoni [5]; two doses 10 mg/kg of weight
  reduction of the viable worms: approximately 90%
S. mansoni [5]; two doses 10 mg/kg
  action on intermediary forms of the parasite (schistosomulus) in the vertebrate host: also acts on the intermediary forms of the parasite (schistosomulus)

## c1ccc(COC2OC[C@@H](Cc3ccc4c(c3)OCO4)[C@@H]2Cc2ccc3c(c2)OCO3)cc1 (single isomer, unassigned; (-)) [compound 7, (−)-O-benzylcubebin]
Schistosoma [2]
  schistosomicidal activity: significant schistosomicidal activity

## COc1cc([C@H]2O[C@@H](c3ccc(O)c(OC)c3)[C@H](C)[C@@H]2C)ccc1O [14d, nectandrin B]
Schistosoma [2]
  schistosomicidal activity: significant schistosomicidal activity

## COc1ccc([C@H]2O[C@@H](c3ccc(OC)c(OC)c3)[C@H](C)[C@@H]2C)cc1OC [14b, galgravin]
Schistosoma [2]
  schistosomicidal activity: significant schistosomicidal activity

## nectandrin E [16c]
Schistosoma [2]
  schistosomicidal activity: significant schistosomicidal activity

## COc1ccc([C@H]2O[C@H](c3ccc(OC)c(OC)c3)[C@@H](C)[C@H]2C)cc1OC [16a, ganschisandrin]
Schistosoma [2]
  schistosomicidal activity: significant schistosomicidal activity

## O=C1OC[C@H](Cc2ccc3c(c2)OCO3)[C@H]1Cc1ccc2c(c1)OCO2 [compound 3, (−)-hinokinin]
[3]; 3.5 μg/ml
  time to increase in the motility of couples: 24 h
  time to separation of the couples: 36 h
[3]; [8]
  effect on egglaying: considerable reduction of egglaying
[3]
  time to considerable increase in the motility of parasite couples: Two
  time to separation of parasite couples: 18 h
[3]; 14.0, 7.0 and 3.5 μg/ml
  change in tegument or death of parasites: no apparent change in tegument or death of parasites
Schistosoma [2]
  schistosomicidal activity: significant schistosomicidal activity

## caloptin [15a]
Schistosoma [2]
  schistosomicidal activity: significant schistosomicidal activity

## COc1ccc([C@H]2O[C@@H](c3ccc(OC)c(OC)c3)[C@H](C)[C@H]2C)cc1OC [15b, veragensin]
Schistosoma [2]
  schistosomicidal activity: significant schistosomicidal activity

## COc1cc([C@H]2O[C@@H](c3ccc(OC)c(OC)c3)[C@H](C)[C@@H]2C)ccc1O [14c, nectandrin A]
Schistosoma [2]
  schistosomicidal activity: significant schistosomicidal activity

## morelensine [1a]
Schistosoma [2]
  schistosomicidal activity: significant schistosomicidal activity

## O=C(C1CCCCC1)N1CC(=O)N2CCc3ccccc3C2C1 (stereo not shown) [praziquantel]
S. mansoni [1]
  reduction of the viable worms: approximately 90%
S. mansoni [6]
  evolutive form of S. mansoni acted on: acts only on the evolutive form of adult worms
Schistosoma [7]
  side effects: abdominal pain, diarrhea, fever and urticaria-shaped reactions

## machilin [14a]
Schistosoma [2]
  schistosomicidal activity: significant schistosomicidal activity

## O=C1OC[C@H](Cc2cc3c(cc2[N+](=O)[O-])OCO3)[C@H]1Cc1cc2c(cc1[N+](=O)[O-])OCO2 [compound 8, (−)-6,6′-dinitroinokinin]
[3]; 3.5 μg/ml
  time to death of parasites: 36 h
[3]; 7.0 μg/ml
  time to death of parasites: 24 h
[3]; 14.0 μg/ml
  time to death of parasites: 20 h
[3]; 14.0, 7.0 and 3.5 μg/ml
  death of the parasites: causing their death
[3]; 14, 7.5 and 3.5 μg/ml
  increase in motility of couples: considerable increase in motility in the first hour of culture
  time to separation of the parasites: 12 h
[3]; 14, 7.5 and 3.5 μg/ml, after separation
  effect on egglaying: interruption in egglaying
S. mansoni [1]
  reduction of the viable worms: approximately 90%
  efficacy: around 90%
Schistosoma [2]
  schistosomicidal activity: significant schistosomicidal activity
[4]
  tegument (cutaneous) lesions in male and female parasites: strong tegument lesions in both male and female parasites; also recorded: very evident tegument lesions

## O[C@H]1OC[C@H](Cc2ccc3c(c2)OCO3)[C@H]1Cc1ccc2c(c1)OCO2 [compound 2, (−)-cubebin]
Schistosoma [2]
  schistosomicidal activity: significant schistosomicidal activity

## CN(C)CCOC1OCC(Cc2ccc3c(c2)OCO3)C1Cc1ccc2c(c1)OCO2 (single isomer, unassigned; (-)) [compound 5, (−)-O—(N,N-dimethylaminoethyl)-cubebin]
[3]; 3.5 μg/ml
  time to increase in the motility of couples: 24 h
  time to separation of the couples: 36 h
[3]; [8]
  effect on egglaying: considerable reduction of egglaying
[3]
  time to considerable increase in the motility of parasite couples: Two
  time to separation of parasite couples: 18 h
[3]; 14.0, 7.0 and 3.5 μg/ml
  change in tegument or death of parasites: no apparent change in tegument or death of parasites
Schistosoma [2]
  schistosomicidal activity: significant schistosomicidal activity

## CC(C)NCC1CCc2cc(CO)c([N+](=O)[O-])cc2N1 (stereo not shown) [Oxamniquin, oxamniquin]
Schistosoma [7]; adults
  cases in which the drug is effective: about 80%
Schistosoma [7]; children
  cases in which the drug is effective: ~65%
Schistosoma [7]
  side effects: cephalgia, sleepiness, nausea, tremors and rarely convulsions

## aristolignine [15c]
Schistosoma [2]
  schistosomicidal activity: significant schistosomicidal activity

## nectandrin D [16b]
Schistosoma [2]
  schistosomicidal activity: significant schistosomicidal activity

## CC(=O)OC1OC[C@H](Cc2ccc3c(c2)OCO3)[C@H]1Cc1ccc2c(c1)OCO2 (single isomer, unassigned; (-)) [compound 4, (−)-O-acetylcubebin]
Schistosoma [2]
  schistosomicidal activity: significant schistosomicidal activity

## Nc1cc2c(cc1CC1COC(=O)C1Cc1cc3c(cc1N)OCO3)OCO2 (single isomer, unassigned; (-)) [compound 9, (−)-6,6′-diaminonokinin]
Schistosoma [2]
  schistosomicidal activity: significant schistosomicidal activity

## COc1ccc(C[C@H]2C(=O)OC[C@@H]2Cc2ccc3c(c2)OCO3)cc1OC [compound 1, (−)-methylpluviatolide]
Schistosoma [2]
  schistosomicidal activity: significant schistosomicidal activity
